“And” between values parts separate entries of the source, which are not always exact repeats. Equal entries are not always repeated.
Assays:
[1] = test system: non-expressing oocytes; assay type: cell-based, Xenopus laevis
In short: (§1)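 Oocytes (ten per treatment, ≥4 independent frogs/days) were preloaded by injecting VF-6 in 25 nL ND96 at pH 5.0, 5.5, 6.0 or 7.0, or Na^+-free choline buffer, then uptake run 1.5 h, 27.5 °C, ND96 pH 5.5 by default. Internal concentrations assumed ~400 nL oocyte volume.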

[2] = molecular target: T1, PfCRT^3D7 (Plasmodium falciparum, UniProt Q8IBZ9); assay: cell-based; assay type: cell-based
T1 sequence (Q8IBZ9 59-398): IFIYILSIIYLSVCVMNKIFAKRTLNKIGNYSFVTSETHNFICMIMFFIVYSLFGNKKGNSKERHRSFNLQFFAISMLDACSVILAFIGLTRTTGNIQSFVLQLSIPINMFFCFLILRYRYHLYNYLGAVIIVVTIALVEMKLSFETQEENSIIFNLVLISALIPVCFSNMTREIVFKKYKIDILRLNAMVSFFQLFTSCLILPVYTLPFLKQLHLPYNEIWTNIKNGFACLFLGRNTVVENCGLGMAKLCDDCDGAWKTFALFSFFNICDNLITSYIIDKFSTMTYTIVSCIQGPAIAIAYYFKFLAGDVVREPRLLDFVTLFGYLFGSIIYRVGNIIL
In short: as §1

[3] = molecular target: T2, PfNT1 (Plasmodium falciparum, UniProt Q8IDM6); assay: cell-based; assay type: cell-based
T2 construct: expressed in transfected cells; host or cells: Xenopus laevis oocytes (stage V-VI), cRNA-injected
T2 sequence (Q8IDM6 whole entry): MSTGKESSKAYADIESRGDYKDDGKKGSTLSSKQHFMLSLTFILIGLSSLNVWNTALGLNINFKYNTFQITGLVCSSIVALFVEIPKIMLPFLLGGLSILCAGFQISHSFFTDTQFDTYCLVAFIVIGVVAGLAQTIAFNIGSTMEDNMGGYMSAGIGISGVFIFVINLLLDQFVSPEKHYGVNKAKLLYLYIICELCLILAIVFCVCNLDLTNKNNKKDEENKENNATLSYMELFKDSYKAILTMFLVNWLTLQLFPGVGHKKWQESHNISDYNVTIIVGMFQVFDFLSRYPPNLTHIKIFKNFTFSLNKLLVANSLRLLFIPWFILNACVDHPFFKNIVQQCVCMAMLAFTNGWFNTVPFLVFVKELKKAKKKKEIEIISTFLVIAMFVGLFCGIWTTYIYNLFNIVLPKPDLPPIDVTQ
In short: as §1

[4] = molecular target: T1, PfCRT^3D7; assay: cell-based; assay type: cell-based; remark: listed apart in the source
From the text: (§2) The orientation of PfCRT in the parasite’s DV membrane, and also in the oocyte plasma membrane, is such that its N- and C-termini extend into the cytosol. The oocytes were suspended in a reaction buffer adjusted to pH 5.5 to mimic the pH of the DV lumen[1],[2]. In this scenario, the transport of a substrate via PfCRT from the acidic extracellular solution into the oocyte cytosol[15] is analogous to the parasite’s PfCRT-mediated efflux of a substrate from the acidic DV and into the cytosol. Unless specified otherwise, this is the direction in which substrate transport was measured in the oocyte assays.
(§3) Unless specified otherwise, the transport assays were conducted over 1.5 h at 27.5 °C and the reaction buffer was ND96 (96 mM NaCl, 2 mM KCl, 1 mM MgCl2, 1.8 mM CaCl2, 10 mM MES and 10 mM Tris-base) at pH 5.5.
(§4) Ten oocytes were washed twice with the relevant ND96 buffer. […] The assay was terminated by removing the reaction buffer and washing the oocytes with ice-cold ND96 buffer. The oocytes were lysed in 10% (w/v) sodium dodecyl sulfate (SDS) and the radioactivity accumulated within each oocyte was measured with a MicroBeta^2 microplate liquid scintillation analyser (PerkinElmer).
(§5) At least four independent experiments were performed (on different days and using oocytes from different frogs), and within each experiment measurements were made from ten oocytes per treatment.

[5] = test system: non-expressing oocytes; assay: cells; assay type: cell-based, Xenopus laevis
From the text: as §2, §3, §4, §5

Row | SMILES | Total [3H]CQ transport, trans-stimulation by injected solute [1] | Trans-stimulation data: total [3H]CQ transport, normalised to the oocyte type control [1] | PfCRT-mediated [3H]CQ transport, trans-stimulation by injected solute, PfCRT3D7 [2] | Total [3H]CQ transport, trans-stimulation by injected solute [2] | Trans-stimulation data: PfCRT-mediated [3H]CQ transport [2] | Trans-stimulation data: total [3H]CQ transport, normalised to the oocyte type control [2] | Total [3H]CQ transport, trans-stimulation by injected solute [3] | Trans-stimulation data: total [3H]CQ transport, normalised to the oocyte type control [3] | Cis-inhibition data: total [3H]CQ transport, normalised to the oocyte type control [4] | Total [3H]CQ transport, cis-inhibition by solute [4] | Cis-inhibition data: total [3H]CQ transport, normalised to the oocyte type control [5] | Total [3H]CQ transport, cis-inhibition by solute [5] | Total [3H]CQ transport, trans-stimulation by solute [1] | Trans-stimulation data: total [3H]CQ transport with the solute injected [1] | Total [3H]CQ transport, trans-stimulation by solute [2] | Trans-stimulation data: total [3H]CQ transport with the solute injected [2] | Total [3H]CQ transport, trans-stimulation by solute [3] | Trans-stimulation data: total [3H]CQ transport with the solute injected [3] | Cis-inhibition data: total [3H]CQ transport in the presence of the solute [4] | Cis-inhibition data: total [3H]CQ transport in the presence of the solute [5]
1 | O=CO [Formate] | 2.5 ± 0.09 and 3.2 ± 0.08 | 101 ± 3.9 and 99 ± 3.5 | 0.8 ± 0.01 and 0.8 ± 0.03 | 3.8 ± 0.01 and 3.8 ± 0.03 | 99 ± 3.7 and 99 ± 3.8 | 101 ± 2.9 and 101 ± 2.8 | 3.1 ± 0.08 and 2.3 ± 0.06 | 101 ± 3.6 and 100 ± 24 | 101 ± 7.3 and 99 ± 3.8 and 100 ± 4.4 | 2.4 ± 0.06 and 3.5 ± 0.07 and 3.3 ± 0.07 | 100 ± 3.5 and 100 ± 1.8 | 2.8 ± 0.03 and 3.2 ± 0.08 and 2.5 ± 0.04 | – | – | – | – | – | – | – | –
2 | N[C@@H](CCC(=O)N[C@@H](CS)C(=O)NCC(=O)O)C(=O)O [Reduced glutathione (GSH)] | 2.7 ± 0.05 and 2.9 ± 0.05 | 99 ± 4.9 and 101 ± 4.7 | 0.2 ± 0.03 and 0.2 ± 0.01 | 3.2 ± 0.03 | 96 ± 3.7 and 98 ± 3.9 | 98 ± 4.3 and 100 ± 3.8 | 3.8 ± 0.07 and 2.7 ± 0.06 | 98 ± 3.8 and 99 ± 4.4 | 100 ± 5.5 and 101 ± 3.7 and 100 ± 4.7 | 2.7 ± 0.06 and 3.1 ± 0.08 and 3.3 ± 0.07 | 99 ± 4.6 and 99 ± 4.5 and 101 ± 2.2 | 2.8 ± 0.2 and 2.6 ± 0.08 and 3.2 ± 0.08 | – | – | – | – | – | – | – | –
3 | O=C(O)CCC(=O)O [Succinate] | 3.1 ± 0.03 and 2.2 ± 0.05 | 100 ± 3.7 and 99 ± 3.3 | 0.8 ± 0.04 and 0.6 ± 0.02 | 3.8 ± 0.1 and 3.6 ± 0.03 | 99 ± 3.9 and 96 ± 4.0 | 101 ± 2.7 and 98 ± 3.7 | 2.6 ± 0.04 and 3.3 ± 0.08 | 101 ± 3.7 and 98 ± 3.0 | 100 ± 9.7 and 100 ± 3.8 and 99 ± 3.7 | 4.2 ± 0.03 and 3.6 ± 0.06 and 3.9 ± 0.1 | 101 ± 4.7 and 101 ± 5.3 and 100 ± 5.3 | 2.4 ± 0.06 and 2.8 ± 0.03 and 2.2 ± 0.06 | – | – | – | – | – | – | – | –
4 | CC[N+](CC)(CC)CC [Tetraethyl ammonium] | – | – | 0.6 ± 0.02 and 0.7 ± 0.01 | – | 97 ± 2.2 and 99 ± 2.6 | – | – | – | – | 2.7 ± 0.06 and 3.2 ± 0.08 and 3.7 ± 0.02 | – | 2.2 ± 0.03 and 3.3 ± 0.08 and 2.8 ± 0.03 | 2.5 ± 0.04 and 3.0 ± 0.04 | 99 ± 3.5 and 98 ± 5.7 | 3.6 ± 0.05 and 3.7 ± 0.05 | 99 ± 0.3 and 101 ± 3.7 | 3.2 ± 0.1 and 2.8 ± 0.02 | 99 ± 3.5 and 100 ± 3.6 | 98 ± 5.7 and 101 ± 5.2 and 98 ± 5.2 | 99 ± 4.8 and 101 ± 4.7 and 99 ± 3.6
5 | Cc1ncc(C[n+]2csc(CCO)c2C)c(N)n1 [Thiamine (Vitamin B1)] | 2.9 ± 0.04 and 3.9 ± 0.05 | 100 ± 3.7 and 99 ± 4.8 | 0.1 ± 0.01 | 3.0 ± 0.05 and 3.0 ± 0.03 | 99 ± 2.9 and 98 ± 1.9 | 101 ± 3.5 and 100 ± 3.6 | 3.7 ± 0.08 and 2.7 ± 0.06 | 101 ± 3.9 | 99 ± 9.3 and 99 ± 3.7 and 99 ± 3.0 | 2.8 ± 0.03 and 2.7 ± 0.07 and 2.8 ± 0.05 | 99 ± 5.1 and 98 ± 5.2 and 100 ± 4.6 | 2.7 ± 0.05 and 4.2 ± 0.03 and 2.2 ± 0.06 | – | – | – | – | – | – | – | –

From PMC7413254 (Nature Communications, 2020)
